How the values were obtained:
[1] = Desolvation / dehydration of crystalline forms on drying or heating; assay type: physicochemical; details: for temperature of heating/drying at which the form is converted to non-solvated non-hydrated form B: desolvation or dehydration to form B
[2] = Solid-state stability of crystalline forms on exposure to humidity; assay type: physicochemical

C[C@H]1CC[C@@]2(OC1)O[C@H]1C[C@H]3[C@@H]4CC[C@@H]5C[C@@H](O)CC[C@]5(C)[C@H]4CC[C@]3(C)[C@H]1[C@@H]2C [form A, sarsasapogenin]
stability with respect to further drying ([1]; after filtration and initial drying): reasonable stability
temperature of heating/drying at which the form is converted to non-solvated non-hydrated form B ([1]; listed as hemi acetone solvate): 80-100 °C
form change on exposure to humidity ([2]; humidity of 50% or greater): led to the formation of form C

C[C@H]1CC[C@@]2(OC1)O[C@H]1C[C@H]3[C@@H]4CC[C@@H]5C[C@@H](O)CC[C@]5(C)[C@H]4CC[C@]3(C)[C@H]1[C@@H]2C [form C, sarsasapogenin]
temperature of heating/drying at which the form is converted to non-solvated non-hydrated form B [1]: 40-60 °C

CC1CCC2(OC1)O[C@H]1CC3C4CC[C@@H]5C[C@@H](O)CC[C@]5(C)C4CC[C@]3(C)C1[C@@H]2C (stereo partly drawn) [form D, sarsasapogenin]
solvate stoichiometry on filtration and drying [1]: variable stoichiometry

C[C@H]1CC[C@@]2(OC1)O[C@H]1C[C@H]3[C@@H]4CC[C@@H]5C[C@@H](O)CC[C@]5(C)[C@H]4CC[C@]3(C)[C@H]1[C@@H]2C [form H, sarsasapogenin]
form change on storage ([2]; 40° C. and 75% relative humidity for 18 days): furnish form I
